Experimental data from PubChem BioAssay (NCI).
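Tested at 5 concentrations; 48 h exposure; 96-well plates; endpoints linearly interpolated, else capped at highest concentration. Abbreviation: GI50, concentration required for 50% inhibition of growth. TGI marks complete inhibition of growth.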

Assays:
Test in all cases: inhibition of tumour cell growth, NCI panel, 48 h
SNB-78 CNS = tested on: SNB-78 CNS
HOP-18 NSCLC = tested on: HOP-18 NSCLC
KM20L2 colon = tested on: KM20L2 colon
DLD-1 colon = tested on: DLD-1 colon
DMS 273 small cell lung = tested on: DMS 273 small cell lung
HS 578T breast = tested on: HS 578T breast
T-47D breast = tested on: T-47D breast
NCI/ADR-RES ovarian = tested on: NCI/ADR-RES ovarian
DU-145 prostate = tested on: DU-145 prostate
PC-3 prostate = tested on: PC-3 prostate

CCCCCCCCCCCCOC(=S)NCCCC
TGI (SNB-78 CNS): 88.4 µM | TGI (HOP-18 NSCLC): 89.1 µM | TGI (KM20L2 colon): 39.5 µM | TGI (DLD-1 colon): > 100 µM | TGI (DMS 273 small cell lung): 41 µM

COc1ccc(-c2cc(=O)c3cc4c(cc3[nH]2)OCO4)c(OC)c1OC
TGI (SNB-78 CNS): > 100 µM | TGI (HOP-18 NSCLC): > 100 µM | TGI (KM20L2 colon): > 100 µM | TGI (DLD-1 colon): > 100 µM | TGI (DMS 273 small cell lung): > 100 µM

c1cc(-c2cn3ccsc3n2)ccn1
TGI (SNB-78 CNS): > 100 µM | TGI (HOP-18 NSCLC): > 100 µM | TGI (KM20L2 colon): > 31.6 µM | TGI (DLD-1 colon): > 100 µM | TGI (DMS 273 small cell lung): > 100 µM

C=C1C(=O)O[C@H]2[C@H]1[C@H](OC(=O)/C(C)=C\C)CC(=C)[C@@H]1[C@H](O)[C@H]3O[C@@]3(C)[C@@]12O
TGI (SNB-78 CNS): > 100 µM | TGI (HOP-18 NSCLC): > 100 µM | TGI (KM20L2 colon): > 100 µM | TGI (DLD-1 colon): > 100 µM | TGI (DMS 273 small cell lung): > 100 µM

O=C(c1ccc(F)cc1)c1cccc(C(=O)c2ccc(F)cc2)n1
TGI (HS 578T breast): > 94.8 µM | TGI (T-47D breast): > 100 µM | TGI (NCI/ADR-RES ovarian): > 100 µM | TGI (DU-145 prostate): > 100 µM | TGI (SNB-78 CNS): > 58.1 µM | TGI (HOP-18 NSCLC): > 100 µM | TGI (KM20L2 colon): > 100 µM | TGI (DLD-1 colon): > 100 µM | TGI (PC-3 prostate): > 100 µM | TGI (DMS 273 small cell lung): > 100 µM

NC(=S)N/N=C(/CC(=O)c1ccccc1)C(=O)Nc1ccc(Cl)c(Cl)c1
TGI (SNB-78 CNS): > 100 µM | TGI (HOP-18 NSCLC): > 100 µM | TGI (KM20L2 colon): > 100 µM | TGI (DLD-1 colon): > 100 µM | TGI (DMS 273 small cell lung): > 100 µM

COc1cccc(NC(=O)CC(=O)N2N=C(N(CCC#N)c3ccc(Cl)cc3)CC2c2ccccc2)c1 (stereo not drawn)
TGI (SNB-78 CNS): > 100 µM | TGI (HOP-18 NSCLC): > 100 µM | TGI (KM20L2 colon): > 100 µM | TGI (DLD-1 colon): > 100 µM | TGI (DMS 273 small cell lung): > 100 µM

Cc1ccc(C(=O)O/N=C2/CCC/C2=C\c2ccccc2)cc1
TGI (SNB-78 CNS): > 100 µM | TGI (HOP-18 NSCLC): > 100 µM | TGI (KM20L2 colon): > 100 µM | TGI (DLD-1 colon): > 100 µM | TGI (DMS 273 small cell lung): > 100 µM

CN(C(=O)C12C3C4C5C3C1(C(=O)O)C5C42)C(C)(C)C (stereo not drawn)
TGI (SNB-78 CNS): > 100 µM | TGI (HOP-18 NSCLC): > 100 µM | TGI (KM20L2 colon): > 100 µM | TGI (DLD-1 colon): 55.2 µM | TGI (DMS 273 small cell lung): 33.5 µM

Cc1ccc(-c2c(N)[n+]([O-])c3ccccc3[n+]2[O-])cc1
TGI (SNB-78 CNS): 37.1 µM | TGI (HOP-18 NSCLC): 29.1 µM | TGI (KM20L2 colon): 38.9 µM | TGI (DLD-1 colon): 28.7 µM | TGI (DMS 273 small cell lung): 29.5 µM

CCCCCCCCCc1cc(=O)c2ccc(OCc3ccccc3)cc2o1
TGI (SNB-78 CNS): > 100 µM | TGI (HOP-18 NSCLC): > 100 µM | TGI (KM20L2 colon): > 100 µM | TGI (DLD-1 colon): > 100 µM | TGI (DMS 273 small cell lung): > 100 µM

COc1ccccc1NC(=O)C1=C(C)NC(C)=C(C(=O)Nc2ccccc2OC)C1c1ccccc1F
TGI (SNB-78 CNS): > 100 µM | TGI (HOP-18 NSCLC): > 100 µM | TGI (KM20L2 colon): > 100 µM | TGI (DLD-1 colon): > 100 µM | TGI (DMS 273 small cell lung): > 100 µM

CNC(=O)OCc1nc(SC2CCCCO2)n(C)c1COC(=O)NC (stereo not drawn)
TGI (NCI/ADR-RES ovarian): > 100 µM | TGI (SNB-78 CNS): > 100 µM | TGI (HOP-18 NSCLC): > 100 µM | TGI (KM20L2 colon): > 100 µM | TGI (DLD-1 colon): > 100 µM | TGI (DMS 273 small cell lung): > 100 µM

COc1cc(/C=C2\C(=O)N(C(=O)Cc3ccccc3)N=C2C)ccc1O
TGI (SNB-78 CNS): > 100 µM | TGI (HOP-18 NSCLC): > 100 µM | TGI (DLD-1 colon): > 100 µM | TGI (DMS 273 small cell lung): > 100 µM

COc1ccccc1NC(=O)CC(=O)N1N=C(C)C(N=Nc2ccc(S(N)(=O)=O)cc2)C1=O (stereo not drawn)
TGI (SNB-78 CNS): > 100 µM | TGI (HOP-18 NSCLC): > 100 µM | TGI (KM20L2 colon): > 100 µM | TGI (DLD-1 colon): > 100 µM | TGI (DMS 273 small cell lung): > 100 µM

O=C(O)c1ccc([Se][Se]c2ccc(C(=O)O)cc2)cc1
TGI (SNB-78 CNS): 52.4 µM | TGI (HOP-18 NSCLC): 82.3 µM | TGI (KM20L2 colon): > 100 µM | TGI (DLD-1 colon): > 100 µM | TGI (DMS 273 small cell lung): 49.7 µM

Cc1ccncc1.[O]=[Ge].[O]=[Ge].[O]=[Ge].[O]=[Ge].[O]=[Ge].[O]=[Ge][OH].[O]=[Ge][OH]
GI50 (SNB-78 CNS): > 100 µM | TGI (SNB-78 CNS): > 100 µM | GI50 (HOP-18 NSCLC): > 100 µM | TGI (HOP-18 NSCLC): > 100 µM | GI50 (KM20L2 colon): > 100 µM | TGI (KM20L2 colon): > 100 µM | GI50 (DLD-1 colon): > 100 µM | TGI (DLD-1 colon): > 100 µM | GI50 (DMS 273 small cell lung): > 100 µM | TGI (DMS 273 small cell lung): > 100 µM

CC(C)(C)OC(=O)C#CC[C@H]1CCCC1/C=C/C(O)=C1/C(=O)NC(CCCNC(=O)OC(C)(C)C)C1=O (stereo partly drawn)
TGI (HOP-18 NSCLC): > 100 µM | TGI (KM20L2 colon): 53.2 µM | TGI (DLD-1 colon): > 100 µM | TGI (DMS 273 small cell lung): 65.9 µM

CCN(CC)CCn1ccc(=O)c2cc3c(=O)ccn(CCN(CC)CC)c3c(C)c21
TGI (HS 578T breast): 17.5 µM | TGI (T-47D breast): 50 µM | TGI (NCI/ADR-RES ovarian): 5.2 µM | TGI (DU-145 prostate): 20.7 µM | TGI (SNB-78 CNS): 26.9 µM | TGI (HOP-18 NSCLC): 30 µM | TGI (KM20L2 colon): 15.4 µM | TGI (DLD-1 colon): 7.83 µM | TGI (PC-3 prostate): 15.9 µM | TGI (DMS 273 small cell lung): 15.1 µM

Cc1cccc(NC(=O)CC(=O)N2N=C(N(CCC#N)c3ccc(Cl)cc3)CC2c2ccccc2)c1 (stereo not drawn)
TGI (SNB-78 CNS): > 100 µM | TGI (HOP-18 NSCLC): > 100 µM | TGI (DLD-1 colon): > 100 µM | TGI (DMS 273 small cell lung): > 100 µM

COc1nc(NC2OCC(OC(C)=O)C(OC(C)=O)C2OC(C)=O)c(N=CC=Nc2c(NC3OCC(OC(C)=O)C(OC(C)=O)C3OC(C)=O)nc(OC)n(C)c2=O)c(=O)n1C (stereo not drawn)
TGI (SNB-78 CNS): > 100 µM | TGI (HOP-18 NSCLC): > 100 µM | TGI (KM20L2 colon): > 100 µM | TGI (DLD-1 colon): > 100 µM | TGI (DMS 273 small cell lung): > 100 µM

CC(=O)NNc1nc(C)c(C(=O)NNC(=O)C(=O)Nc2ccccc2C#N)s1
TGI (SNB-78 CNS): > 100 µM | TGI (HOP-18 NSCLC): > 100 µM | TGI (KM20L2 colon): > 100 µM | TGI (DLD-1 colon): > 100 µM | TGI (DMS 273 small cell lung): > 100 µM
